Test results reported in patent US5786335A, “Sulfhydryl containing peptides for treating vascular disease” (Warner-Lambert Company, priority 1996, dated 1998).
pIC50: −log10 of the molar value. Residues, ends and D or L forms follow the SMILES beside them. No end group written: not given here.

Biological target: Lp(a) formation (coupling between apo(a) and LDL) (Homo sapiens, UniProt P08519)
Experiment: in vitro Lp(a) formation assay: coupling of recombinant human apo(a) with LDL, western blot with densitometry or visual inspection
Assay type: biochemical
Set-up: key to Relative Activity: An easily detectable change from control was assigned as (+); a marked change from control was assigned as (++)
Conditions: for inhibition at 125 µM: 125 μM peptide, densitometry of Lp(a) bands; for inhibition at 125 µM / pIC50: 37° C. for 30 minutes; for pIC50: western blot, read-out: IC50 (concentration required to inhibit 50% of Lp(a) formation)
Protocol: As pointed out above, the peptides of this invention are useful for treating vascular diseases due to their ability to inhibit formation of Lp(a). The compounds have been evaluated in an in vitro assay which established that the subject compounds are potent inhibitors of Lp(a) formation. The assay was carried out by mixing approximately equal quantities of recombinant human apo(a) with low-density lipoprotein (LDL) in a […] microcentrifuge tube. Control vessels contained no invention peptide, whereas test vessels contained a peptide of Formula I. The mixtures were incubated at 37° C. for 30 minutes. The coupling between apo(a) and LDL was quenched by addition of sodium dodecylsulfate (SDS)-PAGE loading buffer. The mixture is next resolved on 4% polyacrylamide gels, and Lp(a) is detected by western blotting using a monospecific human Lp(a) antibody. The intensity of the Lp(a) bands on the blots is measured by a commercial densitometer.
Table I below gives the percent inhibition of Lp(a) formation at 125 μM concentration of representative peptides of the invention, as well as the concentration of representative compounds required to inhibit 50% of Lp(a) formation (IC50).
Additional compounds were evaluated in the above assay, and the western blots were visually inspected for changes in Lp(a) particle formation as a consequence of peptide mediated inhibition. Experimental lanes were visually compared to control lanes and assessed as follows: An easily detectable change from control was assigned as (+); a marked change from control was assigned as (++).

Lp(a) formation (coupling between apo(a) and LDL), sequence (P08519 20-2040): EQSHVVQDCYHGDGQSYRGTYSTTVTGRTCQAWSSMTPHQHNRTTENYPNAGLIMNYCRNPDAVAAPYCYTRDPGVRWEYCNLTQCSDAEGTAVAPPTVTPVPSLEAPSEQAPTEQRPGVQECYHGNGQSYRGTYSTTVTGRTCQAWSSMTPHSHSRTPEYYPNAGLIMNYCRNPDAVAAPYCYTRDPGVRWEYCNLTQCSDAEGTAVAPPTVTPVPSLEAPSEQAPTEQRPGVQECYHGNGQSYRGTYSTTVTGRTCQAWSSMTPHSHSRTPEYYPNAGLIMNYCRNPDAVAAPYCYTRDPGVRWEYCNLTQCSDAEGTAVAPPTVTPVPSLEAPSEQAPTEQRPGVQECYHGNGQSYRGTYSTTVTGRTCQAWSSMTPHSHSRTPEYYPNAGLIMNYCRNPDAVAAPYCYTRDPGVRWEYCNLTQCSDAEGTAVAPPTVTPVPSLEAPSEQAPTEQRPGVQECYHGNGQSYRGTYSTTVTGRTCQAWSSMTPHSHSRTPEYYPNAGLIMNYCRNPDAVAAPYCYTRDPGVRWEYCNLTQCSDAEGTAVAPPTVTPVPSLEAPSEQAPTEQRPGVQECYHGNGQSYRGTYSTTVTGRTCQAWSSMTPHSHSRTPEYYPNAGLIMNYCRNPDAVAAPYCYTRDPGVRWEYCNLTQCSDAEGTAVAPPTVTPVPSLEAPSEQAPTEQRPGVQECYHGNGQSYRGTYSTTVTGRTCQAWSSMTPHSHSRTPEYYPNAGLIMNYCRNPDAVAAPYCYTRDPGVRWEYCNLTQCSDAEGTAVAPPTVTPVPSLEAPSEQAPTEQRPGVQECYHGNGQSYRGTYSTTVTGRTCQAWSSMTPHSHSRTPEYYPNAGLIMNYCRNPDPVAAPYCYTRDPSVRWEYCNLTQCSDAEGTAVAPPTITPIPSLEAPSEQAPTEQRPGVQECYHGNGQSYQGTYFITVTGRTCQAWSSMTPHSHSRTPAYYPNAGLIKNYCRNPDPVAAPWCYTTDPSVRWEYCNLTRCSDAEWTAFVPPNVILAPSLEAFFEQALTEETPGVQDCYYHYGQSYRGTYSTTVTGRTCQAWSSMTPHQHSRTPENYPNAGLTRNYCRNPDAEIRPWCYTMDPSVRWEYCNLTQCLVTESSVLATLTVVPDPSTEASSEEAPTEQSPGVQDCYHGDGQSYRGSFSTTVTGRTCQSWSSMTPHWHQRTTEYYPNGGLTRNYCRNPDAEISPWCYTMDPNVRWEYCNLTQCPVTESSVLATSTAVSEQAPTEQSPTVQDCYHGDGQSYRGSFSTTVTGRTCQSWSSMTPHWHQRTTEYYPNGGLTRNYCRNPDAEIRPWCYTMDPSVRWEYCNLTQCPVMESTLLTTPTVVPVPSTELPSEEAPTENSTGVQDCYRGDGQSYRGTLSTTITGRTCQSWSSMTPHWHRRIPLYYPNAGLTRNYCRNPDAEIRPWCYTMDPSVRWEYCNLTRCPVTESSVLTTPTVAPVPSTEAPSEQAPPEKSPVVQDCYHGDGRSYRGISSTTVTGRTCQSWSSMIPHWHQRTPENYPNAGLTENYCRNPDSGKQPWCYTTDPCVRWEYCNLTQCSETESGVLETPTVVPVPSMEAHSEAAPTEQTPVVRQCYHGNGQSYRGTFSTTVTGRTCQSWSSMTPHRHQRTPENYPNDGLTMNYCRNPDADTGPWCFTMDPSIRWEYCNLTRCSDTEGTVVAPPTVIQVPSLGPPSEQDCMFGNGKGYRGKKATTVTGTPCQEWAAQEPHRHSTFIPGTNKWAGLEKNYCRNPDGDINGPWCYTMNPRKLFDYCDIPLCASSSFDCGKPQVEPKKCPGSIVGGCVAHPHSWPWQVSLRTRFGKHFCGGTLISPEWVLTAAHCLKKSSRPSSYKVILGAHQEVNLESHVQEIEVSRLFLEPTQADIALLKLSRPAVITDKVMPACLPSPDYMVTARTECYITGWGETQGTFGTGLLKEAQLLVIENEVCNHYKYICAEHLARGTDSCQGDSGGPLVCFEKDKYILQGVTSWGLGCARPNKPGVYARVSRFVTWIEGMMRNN

Row | Compound | Relative Activity (western blots visually inspected, experimental lanes compared to control lanes) | inhibition at 125 µM | pIC50
1 | CC(=O)N[C@@H](CS)C(=O)N[C@@H](Cc1ccc(O)cc1)C(=O)N[C@@H](CCCCN)C(N)=O [Ac--Cys--Tyr--Lys--NH2] (Ac-Cys-Tyr-Lys-NH2) | + | – | –
2 | NCCCC[C@H](NC(=O)[C@H](Cc1ccc(O)cc1)NC(=O)[C@@H](N)CS)C(=O)O [Cys--Tyr--Lys] (H-Cys-Tyr-Lys-OH) | – | 90% | 4.30
3 | AQCYK [Ala--Gln--Cys--Tyr--Lys] | – | 36.9% | –
4 | IACYK [Ile--Ala--Cys--Tyr--Lys] | – | 29.8% | –
5 | IQCAK [Ile--Gln--Cys--Ala--Lys] | – | 76.4% | –
6 | IQCYK [Ile--Gln--Cys--Tyr--Lys, Ile-Gln-Cys-Tyr-Lys] | – | 50.1% | 3.96
